Results published in US20080194574A1, “Pyrazine Derivatives As Effective Compounds Against Infectious Diseases” (AXXIMA PHARMACEUTICALS AG, priority 2003, published 2008).

Biological target: T1, viral kinase pUL-97 (Human cytomegalovirus, UniProt P16788)
T1 construct: The pUL-97 gene was cloned into a baculovirus vector; GST (glutathione S-transferase) (N); made in house; host or cells: Sf9 insect cells, baculovirus
Test: UL97 kinase assay on Immobilon plate
Format: biochemical
Conditions: inhibition of UL 97 kinase activity; class by IC50 / % inhibition at 10 μM or 100 μM; read-out: Activity Class [A, B, C]
In short: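 Compound was titrated into a radiometric reaction of Sf9-expressed GST-UL97 kinase, incubated 1 h at 30 °C in Tris-HCl pH 7.5/MnCl2/DTT buffer before EDTA stop. MBP substrate and ATP (3 μM in the added assay buffer) were supplied with γ-[33P]ATP. Labelled product bound to Immobilon filter was washed and counted by scintillation.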

T1 sequence (P16788 whole entry): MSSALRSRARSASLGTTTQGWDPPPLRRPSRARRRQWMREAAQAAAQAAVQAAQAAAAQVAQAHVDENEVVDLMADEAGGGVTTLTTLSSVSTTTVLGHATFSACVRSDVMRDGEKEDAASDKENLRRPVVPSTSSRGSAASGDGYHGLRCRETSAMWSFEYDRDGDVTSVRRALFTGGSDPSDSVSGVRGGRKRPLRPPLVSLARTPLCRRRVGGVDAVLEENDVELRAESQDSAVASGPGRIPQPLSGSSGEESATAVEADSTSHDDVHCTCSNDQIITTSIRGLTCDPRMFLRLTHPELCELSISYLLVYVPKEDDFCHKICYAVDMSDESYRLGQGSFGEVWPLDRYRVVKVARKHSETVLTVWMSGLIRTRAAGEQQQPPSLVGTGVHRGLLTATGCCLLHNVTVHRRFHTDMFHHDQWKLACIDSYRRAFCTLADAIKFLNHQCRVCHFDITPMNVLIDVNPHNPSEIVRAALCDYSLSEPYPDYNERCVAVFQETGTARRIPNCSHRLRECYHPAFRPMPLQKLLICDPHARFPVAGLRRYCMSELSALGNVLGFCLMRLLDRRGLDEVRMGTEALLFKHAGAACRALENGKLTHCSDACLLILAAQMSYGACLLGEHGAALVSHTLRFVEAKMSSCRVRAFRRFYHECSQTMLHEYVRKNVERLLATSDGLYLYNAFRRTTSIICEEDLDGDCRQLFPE

SMILES | IC50 [µM]
COc1cccc(-c2cncc(N3CCN(c4ccccn4)CC3)n2)c1 [compound 304, 6′-(3-Methoxy-phenyl)-4-pyridin-2-yl-3,4,5,6-tetrahydro-2H-[1,2′]bipyrazinyl] | 1 to 10
COc1ccc(N2CCN(c3cncc(-c4csc5ccccc45)n3)CC2)cc1OC [compound 227, 6′-Benzo[b]thiophen-3-yl-4-(3,4-dimethoxy-phenyl)-3,4,5,6-tetrahydro-2H-[1,2′]bipyrazinyl] | 1 to 10
Cc1cccc(-c2cncc(N3CCN(c4ccc(F)cc4)CC3)n2)c1 [compound 232, 4-(4-Fluoro-phenyl)-6′-m-tolyl-3,4,5,6-tetrahydro-2H-[1,2′]bipyrazinyl] | 10 to 100
Fc1ccc(N2CCN(c3cncc(-c4ccoc4)n3)CC2)cc1 [compound 270, 4-(4-Fluoro-phenyl)-6′-furan-3-yl-3,4,5,6-tetrahydro-2H-[1,2′]bipyrazinyl] | 10 to 100
Cc1ccc(N2CCN(c3cncc(-c4csc5ccccc45)n3)CC2)cc1 [compound 231, 6′-Benzo[b]thiophen-3-yl-4-p-tolyl-3,4,5,6-tetrahydro-2H-[1,2′]bipyrazinyl] | 10 to 100
Fc1ccc(-c2cncc(N3CCN(c4cccc(Cl)c4)CC3)n2)cc1Cl [compound 238, 6′-(3-Chloro-4-fluoro-phenyl)-4-(3-chloro-phenyl)-3,4,5,6-tetrahydro-2H-[1,2′]bipyrazinyl] | 10 to 100
Fc1ccccc1N1CCN(c2cncc(-c3csc4ccccc34)n2)CC1 [compound 251, 6′-Benzo[b]thiophen-3-yl-4-(2-fluoro-phenyl)-3,4,5,6-tetrahydro-2H-[1,2′]bipyrazinyl] | 10 to 100
COc1ccc(-c2cncc(N3CCN(c4ccc(C(F)(F)F)cc4)CC3)n2)cc1OC [compound 310, 6′-(3,4-Dimethoxy-phenyl)-4-(4-trifluoromethyl-phenyl)-3,4,5,6-tetrahydro-2H-[1,2′]bipyrazinyl] | 10 to 100
Cc1cccc(N2CCN(c3cncc(-c4csc5ccccc45)n3)CC2C)c1 (stereo not shown) [compound 279, 6′-Benzo[b]thiophen-3-yl-3-methyl-4-m-tolyl-3,4,5,6-tetrahydro-2H-[1,2′]bipyrazinyl] | 10 to 100
Cc1cc(C)cc(-c2cncc(N3CCN(c4cccc(C)c4C)CC3)n2)c1 [compound 338, 4-(2,3-Dimethyl-phenyl)-6′-(3,5-dimethyl-phenyl)-3,4,5,6-tetrahydro-2H-[1,2′]bipyrazinyl] | 10 to 100
CSc1ccccc1-c1cncc(N2CCN(c3ccccn3)CC2)n1 [compound 342, 6′-(2-Methylsulfanyl-phenyl)-4-pyridin-2-yl-3,4,5,6-tetrahydro-2H-[1,2′]bipyrazinyl] | 10 to 100
COc1ccc(-c2cncc(N3CCN(c4ccccn4)CC3)n2)cc1OC [compound 306, 6′-(3,4-Dimethoxy-phenyl)-4-pyridin-2-yl-3,4,5,6-tetrahydro-2H-[1,2′]bipyrazinyl] | 1 to 10
CC(=O)c1ccc(N2CCN(c3cncc(-c4ccc(C(C)(C)C)cc4)n3)CC2)cc1 [compound 204, 1-{4-[6′-(4-tert-Butyl-phenyl)-2,3,5,6-tetrahydro-[1,2′]bipyrazinyl-4-yl]-phenyl}-ethanone] | 10 to 100
COc1ccc(N2CCN(c3cncc(-c4ccccc4)n3)CC2)cc1 [compound 291, 4-(4-Methoxy-phenyl)-6′-phenyl-3,4,5,6-tetrahydro-2H-[1,2′]bipyrazinyl] | 10 to 100

Same assay, conditions: inhibition of UL 97 kinase activity; class by IC50 / % inhibition at 10 or 100 μM; read-out: Activity Class [A, B, C]

SMILES | IC50 [µM]
Cc1cc(C)cc(-c2cncc(N3CCN(c4ccncc4)CC3)n2)c1 [compound 165, 6′-(3,5-Dimethyl-phenyl)-4-pyridin-4-yl-3,4,5,6-tetrahydro-2H-[1,2′]bipyrazinyl] | 1 to 10
c1ccc2cc(-c3cncc(N4CCN(c5ccncc5)CC4)n3)ccc2c1 [Comp. 72, 6′-Naphthalen-2-yl-4-pyridin-4-yl-3,4,5,6-tetrahydro-2H-[1,2-′]bipyrazinyl] | < 1
c1ccc(-c2cncc(N3CCN(c4ccccc4)CC3)n2)cc1 [compound 109, 4,6′-Diphenyl-3,4,5,6-tetrahydro-2H-[1,2′]bipyrazinyl] | 1 to 10
Clc1cccc(N2CCN(c3cncc(-c4ccc5ccccc5c4)n3)CC2)c1 [compound 81, 4-(3-Chloro-phenyl)-6′-naphthalen-2-yl-3,4,5,6-tetrahydro-2H-[1,2′]bipyrazinyl] | 10 to 100
OCc1cccc(-c2cncc(N3CCN(c4ccncc4)CC3)n2)c1 [compound 52, [3-(4-Pyridin-4-yl-3,4,5,6-tetrahydro-2H-[1,2′]bipyrazinyl-6′-yl)-phenyl]-methanol] | 10 to 100
NCc1ccc(-c2cncc(N3CCN(C(=O)c4ccco4)CC3)n2)cc1 [compound 59, [6′-(4-Aminomethyl-phenyl)-2,3,5,6-tetrahydro-[1,2′]bipyrazinyl-4-yl]-furan-2-yl-methanone] | 10 to 100
Cc1ccc(N2CCN(c3cncc(-c4ccc(N(C)C)cc4)n3)CC2)cc1 [compound 176, Dimethyl-[4-(4-p-tolyl-3,4,5,6-tetrahydro-2H-[1,2′]bipyrazinyl-6′-yl)-phenyl]-amine] | 10 to 100
CC(=O)c1ccccc1-c1cncc(N2CCN(c3cccc(C(F)(F)F)c3)CC2)n1 [compound 153, 1-{2-[4-(3-Trifluoromethyl-phenyl)-3,4,5,6-tetrahydro-2H-[1,2′]bipyrazinyl-6′-yl]-phenyl}-ethanone] | 10 to 100
COc1ccc(-c2cncc(N3CCN(c4ccc(F)cc4)CC3)n2)cc1OC [compound 139, 6′-(3,4-Dimethoxy-phenyl)-4-(4-fluoro-phenyl)-3,4,5,6-tetrahydro-2H-[1,2′]bipyrazinyl] | 1 to 10
COc1ccccc1N1CCN(c2cncc(-c3ccc4ccccc4c3)n2)CC1 [compound 86, 4-(2-Methoxy-phenyl)-6′-naphthalen-2-yl-3,4,5,6-tetrahydro-2H-[1,2′]bipyrazinyl] | 1 to 10
COc1ccccc1N1CCN(c2cncc(-c3ccc(C(N)=O)cc3)n2)CC1 [compound 104, 4-[4-(2-Methoxy-phenyl)-3,4,5,6-tetrahydro-2H-[1,2′]bipyrazinyl-6′-yl]-benzamide] | < 1
c1ccc(-c2cncc(N3CCN(c4ccccn4)CC3)n2)cc1 [compound 49] | 1 to 10
Clc1ccc(-c2cncc(N3CCN(c4ccccn4)CC3)n2)cc1 [compound 14, 6′-(4-Chloro-phenyl)-4-pyridin-2-yl-3,4,5,6-tetrahydro-2H-[1,2′]bipyrazinyl] | 10 to 100
COc1ccc(C(C)C)cc1-c1cncc(N2CCN(c3ccncc3)CC2)n1 [compound 55, 6′-(5-Isopropyl-2-methoxy-phenyl)-4-pyridin-4-yl-3,4,5,6-tetrahydro-2H-[1,2′]bipyrazinyl] | 10 to 100
CSc1ccccc1-c1cncc(N2CCN(c3ccncc3)CC2)n1 [compound 166, 6′-(2-Methylsulfanyl-phenyl)-4-pyridin-4-yl-3,4,5,6-tetrahydro-2H-[1,2′]bipyrazinyl] | 10 to 100
COc1ccc(N2CCN(c3cncc(-c4cccc(OC)c4OC)n3)CC2)cc1OC [compound 171, 4-(3,4-Dimethoxy-phenyl)-6′-(2,3-dimethoxy-phenyl)-3,4,5,6-tetrahydro-2H-[1,2′]bipyrazinyl] | 10 to 100
Cc1cc(C)cc(-c2cncc(N3CCN(c4ccccc4)CC3)n2)c1 [compound 192, 6′-(3,5-Dimethyl-phenyl)-4-phenyl-3,4,5,6-tetrahydro-2H-[1,2′]bipyrazinyl] | 10 to 100
